Source: patent publication US8802082B2, “Rhodamine derivatives for photodynamic diagnosis and treatment” (Université de Montreal, priority 1999, dated 2014)

Legend:
[1] = test system: K562 chronic myelogeneous leukemia cell line; experiment: Phototoxicity of TH9402, limiting dilution assay of clonogenic cells, K562 admixed with irradiated PBMC; type: cell-based; details: 10 μM TH9402 40 min, 90 min dye-free, 5 joules/cm^2, LDA 12-14 days
Procedure: T cells represent the most important population of immune cells present in the peripheral blood. […] Phototoxicity was also evaluated in parallel against the chronic myelogenous leukemia cell line K562, that had been used in U.S. Pat. Nos. 5,556,992 and 5,773,460. The CEM T cell acute lymphoblastic leukemia cell line and K562 chronic myelogeneous leukemia cell line (Lozzio, B. B. and Lozzio, C. B. (1979) Cancer Res., 3(6): 363-370) were obtained from the American Type Culture Collection (ATCC, 12301 Parklawn Drive, Rockville, Md. 20852 USA) under the accession number CCL-119 and CCL-243. Cultures were maintained at 37° C. in a humidified incubator with an atmosphere of 95% air and 5% CO2. […] Before each experiment, cell viability was assessed by trypan blue exclusion. […]
To assess the photochemotherapeutic potential and the in vitro phototoxicity of 4,5-dibromorhodamine 123 hydrobromide (TH9402), the T cell line CEM and the leukemic line K562 admixed with normal irradiated PBMC were incubated with TH9402 and exposed to 5 joules/cm^2 of light (as described above). […] Growth at each serial dilution was assessed in an “all-or-nothing” (positive or negative) fashion under an inverted phase microscope. […]

[2] = test system: activated T lymphocytes (CD25+, CD4+ and CD8+); experiment: Phenotypic analysis of residual T lymphocytes after phototherapy (CD25, CD4, CD8 flow cytometry); type: cell-based, human; details: 10 μM TH9402; 2.5, 5 and 10 joules/cm^2; 48 to 72 hours culture; untreated 14%
Procedure: In order to determine if the abrogation of reactivity toward subject B obtained after PDT correlated with the loss of activated T cells, the proportion of activated cells was determined in samples exposed or not to PDT. Activated cells can be discriminated from resting T lymphocytes by their enhanced expression of CD25, which can be detected with a monoclonal antibody specific for CD25, the inducible a chain of the IL-2 receptor. Briefly, after activation of T cells in mixed lymphocyte reaction, as described above, activated T lymphocytes were incubated in X-vivo 15 medium (BioWhittaker) supplemented with 2.5% human AB serum and 10 μM TH9402 for 40 min. These cells were than washed twice with X-vivo-15 medium supplemented with 10% AB human serum. At 110 min after the end of the incubation period, cells were exposed to doses of light ranging from 2.5 to 10 joules/cm^2 of using the above described light delivery device (U.S. Pat. No. 5,798,523). Light energy was delivered using a fluorescent scanning device with maximum wavelength at 512 nm. After treatment, cells were cultured for 48 to 72 hours in X-vivo-15 medium supplemented with 15% of human AB serum. After the latter incubation period, cells were counted and their immunophenotypes analyzed by dual-color flow cytometry to determine the proportion of activated T lymphocytes. […]

Br.COC(=O)c1ccccc1-c1c2ccc(=N)c(Br)c-2oc2c(Br)c(N)ccc12 [TH9402, 4,5-dibromorhodamine 123 (2-(4,5-dibromo-6-amino-3-imino-3H-xanthen-9-yl)-benzoic acid methyl ester) hydrobromide]
K562 cells escaping elimination by phototherapy in comparison to the media only sample [1]: less than 0.1%
proportion of activated T lymphocytes, both CD4+ and CD8+, after PDT [2]: below 1%
